Experimental data as given in patent US20050153306A1, “Fluorogenic enzyme substrates and uses thereof” (IRM LLC, priority 2003, published 2005).

Tests used:
Thrombin = target: T1, Thrombin (Homo sapiens, UniProt P00734); test: Enzymatic activity monitored using rhodamine protease substrates (fluorescence); type: biochemical; conditions: substrate 250 μM, thrombin 500 pM, 37° C.
T1 construct: purchased Haematologic Technologies (Essex Jct., Vt.)
Procedure: (§1) The substrates 1 and 3 were used at 250 μM. Thrombin was used at a concentration of 500 pM and caspase-3 was used at a concentration of 10 nM. For thrombin a buffer consisting of 50 mM Tris (pH 7.4),200 mM NaCl, 5 mM CaCI2 and 0.01% (v/v) Tween-20 (THB) was used. The buffer for caspase-3 (CAB) consisted of 20 mM HEPES (pH 7.4), 100 mM NaCi, inM EDTA, 0.1% CHAPS,10% (w/v) sucrose and 10 mM DTT. 50 µl of the buffer containing the substrate at a concentration of 500 JIM were transferred into a well of a black 96-well Microfluor plate (Dynex Technologies, Chantilly, Va.). The reaction was initiated by the addition of 50 μL of the buffer containing the enzyme at a concentration of 1 nM for thrombin or 20 nM for caspase-3. The hydrolysis of rhodamine substrates was measured with a Spectramax Gemini XS spectrofluorimeter (Molecular devices, Sunnyvale, Calif.) thermostated at 37° C. using an excitation wavelength of 490 nm, an emission wavelength of 530 nm and a cutoff wavelength of 515 nm.

caspase-3 = target: T2, caspase-3 (Homo sapiens, UniProt P42574); test: as above; type: biochemical; set-up: made in house; conditions: substrate 250 μM, caspase-3 10 nM, 37° C.
T2 sequence (P42574 29-175 limits assumed): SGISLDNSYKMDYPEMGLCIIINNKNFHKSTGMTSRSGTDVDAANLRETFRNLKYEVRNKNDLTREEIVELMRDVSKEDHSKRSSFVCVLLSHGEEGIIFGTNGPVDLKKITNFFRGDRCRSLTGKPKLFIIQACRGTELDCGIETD
T2 sequence (P42574 176-277 limits assumed): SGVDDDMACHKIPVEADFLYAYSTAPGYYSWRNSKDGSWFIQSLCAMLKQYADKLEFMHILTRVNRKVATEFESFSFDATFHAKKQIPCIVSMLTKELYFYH
Procedure: as §1

| fluorescence signal (enzymatic hydrolysis of the rhodamine substrate) (Thrombin) | fluorescence signal (enzymatic hydrolysis of the rhodamine substrate) (Thrombin; listed as (nTPR)2-rhodamine-Ac) | fluorescence signal (enzymatic hydrolysis of the rhodamine substrate) (caspase-3) | fluorescence signal (enzymatic hydrolysis of the rhodamine substrate) (caspase-3; listed as (DEVD)2-rhodamine-Ac) | Substance |
| --- | --- | --- | --- | --- |
| strong fluorescent signal | linear increase in fluorescence | only a slight increase in fluorescence | – | (Ac-nTPR)2-rhodamine-Lys(Ac) [compound 3] |
| only a slight increase in fluorescence | – | strong fluorescent signal | linear increase in fluorescence | (Ac-DEVD)2-rhodamine-Lys(Ac) [compound 1] |
